According to US20050100588A1, “Self-adhesive matrix plaster containing an active ingredient and based on polyurethane gels” (Beiersdorf AG, priority 2001, published 2005):

Test: Active ingredient release of NVA to pig's skin
Assay type: in vitro ADME
Settings: pig's skin, 2, 4, 6, 8 and 24 hours, FIG. 7
Description: For investigating the release characteristics, specimens on pig's skin are prepared and the release is determined quantitatively after 24 hours.
In order to investigate the release characteristics, samples on pig's skin are prepared and the release is determined quantitatively after 2, 4, 6, 8 and 24 hours. […] From this it is clear that the active ingredient is delivered in a controlled, sustained manner into the skin to develop its activity there.

Compound: CCCCCCCCC(=O)NCc1ccc(O)c(OC)c1 [NVA, Nonivamide]
- quantity of NVA released in total to epidermis and dermis, course over time: uniform, linear increase
